Assay results: patent publication US20230270720A1, “MAVOGLURANT, A MGLUR5 ANTAGONIST, FOR USE IN THE TREATMENT IN THE REDUCTION OF OPIOID USE” (Novartis AG, priority 2020, published 2023)

Experiments:
[1] = tested on: morphine tolerant mice; assay: Opiate tolerance test (hot plate) in the mouse; type: in vivo; details: for increase of foot-licking latency as compared with animals receiving morphine from Day 1 to Day 6: morphine 32 mg/kg i.p. twice daily Day 1-6; for effect on foot-licking latency: morphine tolerant mice
[2] = tested on: Sprague-Dawley rats; assay: Remifentanil intravenous self-administration model in Sprague-Dawley rats; type: in vivo, rat; details: for rate of lever press (speed of lever pressing): vehicle 0.077±0.031, P>0.05
[3] = tested on: Sprague-Dawley rats; assay: Cue-induced reinstatement of remifentanil seeking in the rat; type: in vivo
[4] = tested on: rat model of drug dependence; details: cited from earlier work
[5] = tested on: adult CD1 mice; details: 20 mg/kg, i.p., cited from earlier work

## COC(=O)N1CC[C@@H]2[C@H]1CCC[C@@]2(O)C#Cc1cccc(C)c1 [Compound (I), (−)-(3aR,4S,7aR)-4-Hydroxy-4-m-tolylethynyl-octahydro-indole-1-carboxylic acid methyl ester]
[1]; 1 mg/kg p.o. 60 minutes before the test on Day 7, p<0.01
  increase of foot-licking latency as compared with animals receiving morphine from Day 1 to Day 6: +44%
[1]; 3 mg/kg p.o. 60 minutes before the test on Day 7
  effect on foot-licking latency: no significant effects
[1]; 10 mg/kg p.o. 60 minutes before the test on Day 7
  effect on foot-licking latency: no significant effects
[2]; 3 mg/kg p.o. 30 min before one remifentanil 3.2 μg/kg/infusion session
  average number of remifentanil infusions: did not significantly affect
[2]; 3 mg/kg p.o. 30 min before session
  rate of lever press (speed of lever pressing): 0.048±0.019 responses/second/session
[2]; 10 mg/kg p.o. 30 min before one remifentanil 3.2 μg/kg/infusion session
  average number of remifentanil infusions: did not significantly affect
[2]; 10 mg/kg p.o. 30 min before session
  rate of lever press (speed of lever pressing): 0.035±0.010 responses/second/session
[2]; 30 mg/kg p.o. 30 min before one remifentanil 3.2 μg/kg/infusion session
  average number of remifentanil infusions: did not significantly affect
[2]; 30 mg/kg p.o. 30 min before session
  rate of lever press (speed of lever pressing): 0.026±0.007 responses/second/session
[3]; 3 mg/kg p.o. 30 minutes before the cue reinstatement session
  effect on cue-induced reinstatement (lever presses): No significant effect
[3]; 10 mg/kg p.o. 30 minutes before the cue reinstatement session, p<0.01
  number of active lever presses as compared with vehicle condition: significantly decreased
[3]; 10 mg/kg p.o. 30 minutes before the cue reinstatement session, p<0.05
  number of inactive lever presses as compared with vehicle: significantly decreased

## Cc1cccc(C#Cc2ccccc2)n1 [Compound (III), 2-Methyl-6-(phenylethynyl)-pyridine, reference compound]
[1]; 10 mg/kg p.o. 60 minutes before the test on Day 7, p<0.05
  increase of foot-licking latency as compared with animals receiving morphine from Day 1 to Day 6: +32%
[2]; rat, in vivo
  rate of lever press: 0.039±0.011 responses per second
[3]; rat, in vivo
  number of active lever presses as compared with vehicle condition: significantly decreased
  number of inactive lever presses as compared with vehicle: did not significantly affect
[4]; dose dependently
  reduction of the self-administration (SA) of ketamine: 75%
[4]; modestly
  reduction of the self-administration (SA) of heroin: 20%

## Cc1nc(C#Cc2cccnc2)cs1 [MTEP, 3-[(2-methyl-1,3-thiazol-4-yl)ethynyl]pyridine]
[5]; morphine 0.1 mg/kg/infusion
  operant responding for morphine: attenuated
[5]
  cue-induced morphine-seeking after a period of forced abstinence: attenuated
